Measured values from US6482797B1, “N-terminal site selective inhibitors of human angiotensin conversion enzyme (ACE)” (Commissariat A l'Energie Atomique, priority 1998, dated 2002).
pKi: −log10 of the molar value. Where two headings read alike, the source gives them in different places. Where a SMILES comes first, the peptide text is derived from it.

Tests used:
[1] = target: T1, N-terminal site of human angiotensin-converting enzyme (Active N-terminal ACE) (Homo sapiens, UniProt P12821, H988K/H992K); experiment: ACE inhibition, quenched fluorescence substrate, N-terminal mutant (C-terminal site inactive); type: biochemical; settings: for degree of selectivity in favour of the N-terminal site (FIG. 3): N-terminal site at 100 nM, C-terminal site at 5 μM
T1 construct: made in house; host or cells: CHO cells
T1 sequence (P12821 30-1306 H988K/H992K): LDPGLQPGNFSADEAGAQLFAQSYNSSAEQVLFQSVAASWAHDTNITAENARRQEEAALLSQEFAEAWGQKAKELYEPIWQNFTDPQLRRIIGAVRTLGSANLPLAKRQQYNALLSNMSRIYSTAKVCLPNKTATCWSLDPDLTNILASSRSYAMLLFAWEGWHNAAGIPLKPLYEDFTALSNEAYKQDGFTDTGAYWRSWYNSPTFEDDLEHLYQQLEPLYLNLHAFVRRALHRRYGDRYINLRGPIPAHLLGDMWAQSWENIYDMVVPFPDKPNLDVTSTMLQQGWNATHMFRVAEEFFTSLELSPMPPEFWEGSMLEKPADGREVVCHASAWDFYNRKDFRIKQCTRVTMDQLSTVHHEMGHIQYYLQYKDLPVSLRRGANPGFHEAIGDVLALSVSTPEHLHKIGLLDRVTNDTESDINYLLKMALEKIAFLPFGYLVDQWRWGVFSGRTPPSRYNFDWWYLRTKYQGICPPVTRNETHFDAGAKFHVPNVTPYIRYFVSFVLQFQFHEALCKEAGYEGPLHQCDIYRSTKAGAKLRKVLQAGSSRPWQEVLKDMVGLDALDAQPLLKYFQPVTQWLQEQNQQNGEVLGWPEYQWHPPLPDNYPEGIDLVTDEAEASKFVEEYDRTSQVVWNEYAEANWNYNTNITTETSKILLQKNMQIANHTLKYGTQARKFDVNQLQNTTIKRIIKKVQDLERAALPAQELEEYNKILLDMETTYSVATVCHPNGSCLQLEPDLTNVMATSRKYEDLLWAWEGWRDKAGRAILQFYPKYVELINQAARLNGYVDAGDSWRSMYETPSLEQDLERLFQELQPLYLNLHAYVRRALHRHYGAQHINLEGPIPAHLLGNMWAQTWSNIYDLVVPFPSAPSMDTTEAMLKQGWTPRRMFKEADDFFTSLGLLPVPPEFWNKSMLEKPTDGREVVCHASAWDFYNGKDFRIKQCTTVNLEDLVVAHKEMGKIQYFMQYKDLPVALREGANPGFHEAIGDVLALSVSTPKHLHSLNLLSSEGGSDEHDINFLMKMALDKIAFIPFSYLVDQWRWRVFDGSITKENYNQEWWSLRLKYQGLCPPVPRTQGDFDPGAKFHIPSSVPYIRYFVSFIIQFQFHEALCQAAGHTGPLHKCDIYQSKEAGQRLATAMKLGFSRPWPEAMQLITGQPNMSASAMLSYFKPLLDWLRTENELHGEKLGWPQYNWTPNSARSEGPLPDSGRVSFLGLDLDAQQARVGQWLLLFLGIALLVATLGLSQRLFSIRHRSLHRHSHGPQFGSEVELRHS
Description: (§1) Said mixtures were evaluated at final peptide concentrations of 200 nM in order to determine their ACE inhibitory capacity. To assay ACE, a new quenched fluorescence ACE substrate (Mca-Ala-Ser-Asp-Lys-Dpa) was developed, where Mca represents methoxy coumarine and Dpa 2-(N-dinitrophenyl)aminopropionic acid. Said substrate, which is […], emits an intense fluorescent signal after splitting, between the Asp and Lys residues, by ACE. Using this type of substrate, it is possible to test the inhibitory power of a very large number of compounds in Elisa plates.
(§2) The inhibitory power of the compounds is determined in a conventional competition test based on the breakdown of the quenched fluorescence substrate […]. The breakdown of said substrate by ACE results in the observation of a fluorescent signal at 400 nm, when the sample is excited at 328 nm. The inhibition experiments are conducted in Elisa plate wells, in volumes of 200 μl of buffer: pH 6.8, 50 mM Hepes, 200 mM NaCl, 1 mM ZnCl2, at 25° C., in a Dynatech Fluorolite 1000 type unit. The concentration of the substrate in a typical experiment is 20 μM. For the inhibition experiments, the inhibitor is placed in the presence of the enzyme for 45 min, and the reaction is then initiated by simply adding a very small volume of substrate. The inhibition percentages are calculated from the initial rate variations in the presence of inhibitor. The breakdown kinetics were determined from the record of the fluorescence variations over a 40 min time interval.
(§3) Said mutants were produced from CHO cells.

[2] = target: T2, C-terminal site of human angiotensin-converting enzyme (Active C-terminal ACE) (Homo sapiens, UniProt P12821, H390K/H394K); experiment: ACE inhibition, quenched fluorescence substrate, C-terminal mutant (N-terminal site inactive); type: biochemical; settings: C-terminal mutant of ACE from CHO cells
T2 construct: made in house; host or cells: CHO cells
T2 sequence (P12821 30-1306 H390K/H394K): as the sequence (P12821 30-1306 H988K/H992K) above, with H361K, H365K, K959H, K963H counted along it
Description: as §1, §2, §3

[3] = system: plasma renin; experiment: Plasma renin level (angiotensin I formed) after infusion; type: in vivo; settings: mice; RXP 407 0.1, 1, 10 mg/kg; Lisinopril 10 mg/kg
Description: In this example, the effect of RXP 407 on the levels of renin, another enzyme involved in arterial pressure regulation, is determined. Inhibition of ACE with a conventional inhibitor of said enzyme stops the hydrolysis of angiotensin I into angiotensin II. Angiotensin is indeed one of the physiological substrates of ACE. The decrease in the angiotensin II level in plasma by a retrocontrol mechanism, increases the plasma level of renin, an enzyme directly involved in the production of angiotensin I, from angiotensinogen.
In this way, the inhibition of ACE may be monitored indirectly by the plasma renin level.
This level may be evaluated by the capacity of renin in plasma samples to hydrolyse excess angiotensinogen present in mouse plasma. The formation of angiotensin I is then measured by a radioimmunological assay and the renin level is expressed in ng of angiotensin I formed per ml of plasma and per hour of incubation.

[4] = Elimination and metabolism of tritiated RXP 407 in vivo; set-up: species or system rats; settings: rat
Description: (§4) For this purpose, an RXP 407 comprising three tritium atoms on the N-acetyl group is synthesised to be able to conduct a study on the pharmacokinetics and metabolism of said molecule in rats, by injecting said product at doses of 0.1, 1 and 5 mg/kg by intravenous bolus.

[5] = Plasma concentration of tritiated RXP 407 after intravenous bolus; set-up: species or system rats; settings: rat, in vivo, 5 mg/kg
Description: as §4
The plasma concentration of RXP 407 as a function of time is then determined.
The results obtained are represented in FIG. 7. Curve 1 corresponds to 0.1 mg/kg, curve 2 to 1 mg/kg and curve 3 to 5 mg/kg. The dotted curve illustrates the Ki of RXP 407 (20 nM).

[6] = system: plasma Ac-Ser-Asp-Lys-Pro (Ac-SDKP); experiment: Plasma Ac-SDKP concentration after 30 minute infusion; type: in vivo; settings: mice, infusion for 30 minutes; RXP 407 0.1, 1, 10 mg/kg; Lisinopril 10 mg/kg
Description: For this purpose, the mice undergo an infusion of RXP 407 for 30 minutes, at doses of 0.1, 1 and 10 mg/kg and the Ac-Ser-Asp-Lys-Pro-(Ac-SDKP) peptide concentration of the mouse plasma is determined.
The Ac-Ser-Asp-Lys-Pro is determined by a competition immunoenzyme assay using polyclonal antibodies and Ac-SDKP linked to Electrophorus Electricus acetyicholinesterase.
The same plasma Ac-SDKP measurements are made on mice infused with Lisinopril of a 10 mg/kg dose and on non-infused control mice. Lisinopril is an inhibitor used in clinical practice which inhibits both active sites of ACE non-selectively.

[7] = target: T3, wild human ACE (Homo sapiens, UniProt P12821); experiment: Inhibition of natural ACE as a function of RXP 407 concentration; type: biochemical; settings: wild human ACE from CHO cells
T3 construct: made in house; host or cells: CHO cells
T3 sequence (P12821 30-1306): as the sequence (P12821 30-1306 H988K/H992K) above, with K959H, K963H counted along it
Description: as §2
In this example, the RXP 407 peptide is used as a natural ACE inhibitor, and the effect of the RXP 407 concentration (in nM) on the ACE inhibition percentage is studied.
The inhibitory power of the compound is determined as in example 1 using wild human ACE produced by CHO cells according to the protocol described in the reference Wei et al, J. Biol. Chem. (1992) 267, 13398-13405 [14].

[8] = system: plasma AcSDKP; settings: single dose, healthy volunteer subjects; cited from earlier work
[9] = system: ACE N-terminal domain versus C-terminal domain; settings: in vitro; cited from earlier work
[10] = N-terminal mutant of ACE from CHO cells, read-out: Ki Active N-terminal ACE

CC(CP(=O)(O)C(Cc1ccccc1)NC(=O)[C@@H](N)CC(=O)O)C(=O)N[C@@H](C)C(N)=O (stereo partly shown) [H2N-Asp-Pheψ (PO2CH2) Ala-AlaNH2]
pKi [1, 10]: 8.30 | pKi [2]: 6.10

CC(CP(=O)(O)C(Cc1ccccc1)NC(=O)[C@@H](N)CC(=O)O)C(=O)N[C@@H](C)C(=O)O (stereo partly shown) [H2N-Asp-Pheψ (PO2CH2) Ala-AlaOH]
pKi [1, 10]: 8.70 | pKi [2]: 7.22

CC(=O)N[C@@H](CC(=O)O)C(=O)NC(Cc1ccccc1)P(=O)(O)CC(C)C(=O)N[C@@H](C)C(=O)O (stereo partly shown) [Ac-Asp-Pheψ (PO2CH2) Ala-AlaOH]
pKi [1, 10]: 8.70 | pKi [2]: 8.15

CC(=O)N[C@@H](CC(=O)O)C(=O)NC(Cc1ccccc1)P(=O)(O)CC(C)C(=O)N[C@@H](C)C(N)=O (stereo partly drawn) [Ac-Asp-Pheψ (PO2CH2) Ala-AlaNH2, Ac-Asp-PheΨ(PO2CH2)Ala-Ala-NH2]
pKi [1, 10]: 7.60 | degree of selectivity in favour of the N-terminal site (FIG. 3) [1]: improve the degree of selectivity in favour of the N-terminal site

NCCCC[C@H](N[C@@H](CCc1ccccc1)C(=O)O)C(=O)N1CCC[C@H]1C(=O)O [Lisinopril, reference compound]
plasma renin level (FIG. 9) [3]: induces an increase in the plasma renin level

proline
degree of selectivity in favour of the N-terminal site (FIG. 3) [1]: improve the degree of selectivity in favour of the N-terminal site

CC(=O)N[C@@H](C)C(=O)NC(Cc1ccccc1)P(=O)(O)CC(C)C(=O)N[C@@H](C)C(N)=O (stereo partly shown) [Ac-Ala-Pheψ (PO2CH2) Ala-AlaNH2]
pKi [1, 10]: 7.82 | pKi [2]: 6.70

CC(=O)N[C@@H](CC(=O)O)C(=O)N[C@@H](Cc1ccccc1)P(=O)(O)C[C@@H](C)C(=O)N[C@@H](C)C(N)=O [RXP 407, Ac-Asp-(R)Phe(PO2CH2)-(S)Ala-Ala-NH2]
Total [4]: 100.09±7 % of injected radioactivity | eliminated in urine [4]: 87% | metabolism (structure of the product in urine and faeces) [4]: does not undergo any metabolism | product detected in the airways [4]: No trace of this product is detected | dose excreted ([4]; iv, total radioactivity): 13% | plasma RXP 407 concentration [5]: 100 ng/mL | plasma level of Ac-SDKP peptide (FIG. 8) [6]: very significant increase | pKi [1, 10]: 7.92 | pKi ([1]; value drawn in plasma concentration figure, read-out: Ki of RXP 407 (dotted curve of FIG. 7)): 7.70 | plasma renin level (FIG. 9) [3]: does not induce an increase in renin | IC50 values with respect to the N and C-terminal sites of natural ACE (inflection points, FIG. 6) [7]: compatible with the Ki values measured using the ACE mutants

C[C@H](CS)C(=O)N1CCC[C@H]1C(=O)O [captopril]
increase of the plasma level of AcSDKP [8]: 6 to 7 fold

CC(=O)N[C@@H](CO)C(=O)N[C@@H](CC(=O)O)C(=O)N[C@@H](CCCCN)C(=O)N1CCC[C@H]1C(=O)O [AcSDKP, N-Acetyl-Seryl-Aspartyl-Lysyl-Proline] (Ac-SDKP-OH)
hydrolysed more quickly by the N-terminal domain than by the C-terminal domain [9]: 50 times
